This note sets out measurements from patent publication US9328099B2, “Cyanomethylpyrazole carboxamides as janus kinase inhibitors” (Merck Sharp & Dohme Corp., priority 2011, dated 2016).

One assay addresses JAK2 (Homo sapiens (Human), UniProt O60674). In words: Jak Biochemical HTRF Assay, JAK2. Conditions: HTRF biochemical assay, GST-tagged catalytic domain; top concentration tested […]. The text has this:
(§1) Jak Biochemical HTRF Assay Protocol
(§2) Subsequent reagent additions employed an Agilent Bravo.
In general terms: TR-FRET usually uses a lanthanide donor and a delayed reading to cut background.

The target of a further assay is JAK1 (Homo sapiens (Human), UniProt P23458). In words: Jak Biochemical HTRF Assay, JAK1. The settings on record: HTRF biochemical assay, GST-tagged catalytic domain; top concentration tested […]; read-out: JAK1 IC50.
Source text: as §1, §2

Each structure is given as a SMILES string. pIC50: −log10 of the molar value.

Chain of JAK1 (P23458 875-1153): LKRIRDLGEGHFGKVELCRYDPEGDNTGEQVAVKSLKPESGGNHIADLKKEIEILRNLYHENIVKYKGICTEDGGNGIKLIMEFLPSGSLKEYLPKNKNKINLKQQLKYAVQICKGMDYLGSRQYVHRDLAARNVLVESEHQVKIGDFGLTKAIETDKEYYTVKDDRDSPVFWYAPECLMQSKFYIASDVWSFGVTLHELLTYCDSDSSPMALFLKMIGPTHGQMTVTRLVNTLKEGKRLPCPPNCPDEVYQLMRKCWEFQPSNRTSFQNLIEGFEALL
Chain of JAK2 (O60674 849-1124): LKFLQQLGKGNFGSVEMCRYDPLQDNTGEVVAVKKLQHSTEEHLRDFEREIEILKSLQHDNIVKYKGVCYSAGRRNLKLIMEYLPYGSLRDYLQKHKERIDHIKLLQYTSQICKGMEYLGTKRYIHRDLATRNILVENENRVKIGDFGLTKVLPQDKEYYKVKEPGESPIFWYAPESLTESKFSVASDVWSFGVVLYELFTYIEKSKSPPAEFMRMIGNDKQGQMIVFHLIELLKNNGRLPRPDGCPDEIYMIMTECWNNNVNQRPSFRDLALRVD

In the case of `N#CCC1(n2cc(C(N)=O)c(Nc3ccc(F)cc3)n2)CCN(CC2CCCCC2)CC1` [Example 22-6, 1-[4-(cyanomethyl)-1-(cyclohexylmethyl)piperidin-4-yl]-3-[(4-fluorophenyl)amino]-1H-pyrazole-4-carboxamide], the negative logarithm of the IC50 (pIC50) at JAK2 is 6.68; on JAK1 it was 8.22.
Taken in the same sequence, the figures for `N#CCC1(n2cc(C(N)=O)c(Nc3ccc(F)cc3)n2)CCN(c2cc(F)cc(F)c2)CC1` [Example 3-40, 1-[4-(cyanomethyl)-1-(3,5-difluorophenyl)piperidin-4-yl]-3-[(4-fluorophenyl)amino]-1H-pyrazole-4-carboxamide] were 7.17 and 8.52.
Turning to `N#CCC1(n2cc(C(N)=O)c(Nc3ccnc(F)c3)n2)CCC(NCc2ccccn2)CC1` (stereo not drawn) [Example 41-17, Cis or trans 1-{1-(cyanomethyl)-4-[(pyridin-2-ylmethyl)amino]cyclohexyl}-3-[(2-fluoropyridin-4-yl)amino]-1H-pyrazole-4-carboxamide], the pIC50 was 5.86 on JAK2 and 7.34 at JAK1.
As to `N#CCC1(n2cc(C(N)=O)c(Nc3ccc(F)cc3)n2)CCN(c2cccc(F)n2)CC1` [Example 3-54, 1-[4-(cyanomethyl)-1-(6-fluoropyridin-2-yl)piperidin-4-yl]-3-[(4-fluorophenyl)amino]-1H-pyrazole-4-carboxamide], the pIC50 at JAK2 is 8.40; on JAK1, 9.52.
Taken in the same sequence, the figures for `N#CCC1(n2cc(C(N)=O)c(Nc3ccc(Cl)cc3)n2)CCC(N2CC(F)C2)CC1` (stereo not drawn) [Example 39-1, Cis or trans 3-((4-chlorophenyl)amino)-1-(1-(cyanomethyl)-4-(3-fluoroazetidin-1-yl)cyclohexyl)-1H-pyrazole-4-carboxamide] were 8.70 and 10.05.
As for `N#CCC1(n2cc(C(N)=O)c(Nc3ccc(F)cc3)n2)CCC(Nc2ccccc2F)CC1` (stereo not drawn) [Example 40-60, Cis or trans 1-{1-(cyanomethyl)-4-[(2-fluorophenyl)amino]cyclohexyl}-3-[(4-fluorophenyl)amino]-1H-pyrazole-4-carboxamide], the pIC50 was 6.12 on JAK2 and 7.35 on JAK1.
Take `N#CCC1(n2cc(C(N)=O)c(Nc3ccc(F)cc3)n2)CCN(C(=O)OCC2CCOC2)CC1` (centres unmarked) [Example 30-22, tetrahydrofuran-3-ylmethyl 4-{4-carbamoyl-3-[(4-fluorophenyl)amino]-1H-pyrazol-1-yl}-4-(cyanomethyl)piperidine-1-carboxylate]: the values for the pIC50 against JAK2 and on JAK1 were 6.91 and 8.30, respectively.
Turning to `N#CCC1(n2cc(C(N)=O)c(Nc3ccc(S(=O)(=O)C(F)F)cc3)n2)CCC(NC2CCOCC2)CC1` (stereo not drawn) [Example 40-66, Cis or trans 1-[1-(cyanomethyl)-4-(tetrahydro-2H-pyran-4-ylamino)cyclohexyl]-3-({4-[(difluoromethyl)sulfonyl]phenyl}amino)-1H-pyrazole-4-carboxamide], the negative-log IC50 (pIC50) is less than 5.83 against JAK2 and 6.46 on JAK1.
`COCCOC(=O)N1CC(CC#N)(n2cc(C(N)=O)c(Nc3ccccc3)n2)C1` [Example 30-59, 2-methoxyethyl 3-[4-carbamoyl-3-(phenylamino)-1H-pyrazol-1-yl]-3-(cyanomethyl)azetidine-1-carboxylate]: the pIC50 on JAK2 was 6.47; at JAK1 it was 7.82.
Taken in the same sequence, the figures for `N#CCC1(n2cc(C(N)=O)c(Nc3ccccc3)n2)CN(S(=O)(=O)Cc2ccccc2)C1` [Example 37-20, 1-[1-(benzylsulfonyl)-3-(cyanomethyl)azetidin-3-yl]-3-(phenylamino)-1H-pyrazole-4-carboxamide] were 6.28 and 6.98.
`N#CCC1(n2cc(C(N)=O)c(Nc3ccc(F)cc3)n2)CCN(c2ccc(OC(F)F)cn2)CC1` [Example 3-19, 1-{4-(cyanomethyl)-1-[5-(difluoromethoxy)pyridin-2-yl]piperidin-4-yl}-3-[(4-fluorophenyl)amino]-1H-pyrazole-4-carboxamide]: the pIC50 at JAK2 was 7.74; on JAK1, 9.22.
As for `N#CCC1(n2cc(C(N)=O)c(Nc3ccnc(F)c3)n2)CCC(NCc2ccccc2)CC1` (stereo not drawn) [Example 41-28, Cis or trans 1-[4-(benzylamino)-1-(cyanomethyl)cyclohexyl]-3-[(2-fluoropyridin-4-yl)amino]-1H-pyrazole-4-carboxamide], the results for the pIC50 at JAK2 and at JAK1 were 6.13 and 7.70, respectively.
On to `CC(=O)c1ccc(Nc2nn(C3(CC#N)CCN(C(=O)OC(C)(C)C)CC3)cc2C(N)=O)cc1` [Example 9-10, tert-butyl 4-(3-(4-acetylphenylamino)-4-carbamoyl-1H-pyrazol-1-yl)-4-(cyanomethyl)piperidine-1-carboxylate], for which the values for the negative-log IC50 (pIC50) against JAK2 and on JAK1 were 8.52 and 9.70, respectively.
As to `N#CCC1(n2cc(C(N)=O)c(Nc3ccc(F)cc3)n2)CCN(C(=O)OC2CCOCC2)CC1` [Example 30-47, tetrahydro-2H-pyran-4-yl 4-{4-carbamoyl-3-[(4-fluorophenyl)amino]-1H-pyrazol-1-yl}-4-(cyanomethyl)piperidine-1-carboxylate], the pIC50 was 6.99 on JAK2 and 8.52 on JAK1.
Take `Cc1noc(-c2ccc(Nc3nn(C4(CC#N)CCN(C(=O)OC(C)(C)C)CC4)cc3C(N)=O)cc2)n1` [Example 9-30, tert-butyl 4-(4-carbamoyl-3-{[4-(3-methyl-1,2,4-oxadiazol-5-yl)phenyl]amino}-1H-pyrazol-1-yl)-4-(cyanomethyl)piperidine-1-carboxylate]: the results for the pIC50 against JAK2 and at JAK1 were 8.30 and 9.70, respectively.
For the molecule `COC(=O)Cc1ccc(Nc2nn(C3(CC#N)CCN(C(=O)OC(C)(C)C)CC3)cc2C(N)=O)cc1` [Example 12-2, tert-butyl 4-(4-carbamoyl-3-{[4-(2-methoxy-2-oxoethyl)phenyl]amino}-1H-pyrazol-1-yl)-4-(cyanomethyl)piperidine-1-carboxylate], the pIC50 on JAK2 is 8.52; at JAK1, 9.70.
`N#CCC1(n2cc(C(N)=O)c(Nc3ccc(-c4cn[nH]c4)nc3)n2)CCN(C(=O)OCC(F)(F)F)CC1` [Example 11-2, 2,2,2-trifluoroethyl 4-(4-carbamoyl-3-{[6-(1H-pyrazol-4-yl)pyridin-3-yl]amino}-1H-pyrazol-1-yl)-4-(cyanomethyl)piperidine-1-carboxylate]: the pIC50 is 9.22 on JAK2 and 11.00 at JAK1.
Taken in the same sequence, the figures for `N#CCC1(n2cc(C(N)=O)c(Nc3ccccc3)n2)CCN(Cc2ccc(C#N)cc2)CC1` [Example 21-4, 1-[1-(4-cyanobenzyl)-4-(cyanomethyl)piperidin-4-yl]-3-(phenylamino)-1H-pyrazole-4-carboxamide] were 6.61 and 7.54.
On the same counts, the results for `CC(C)c1ccccc1NC(=O)N1CC(CC#N)(n2cc(C(N)=O)c(Nc3ccccc3)n2)C1` [Example 38-8, 1-[3-(cyanomethyl)-1-{[2-(1-methylethyl)phenyl]carbamoyl}azetidin-3-yl]-3-(phenylamino)-1H-pyrazole-4-carboxamide] are 6.37 and 7.85.
For `N#CC[C@]1(n2cc(C(N)=O)c(Nc3ccc(S(=O)(=O)C(F)F)cc3)n2)CC[C@H](N)CC1` [Example 41-2], the pIC50 was less than 5.83 against JAK2 and 7.07 on JAK1.
For the molecule `CC(C)(C)OC(=O)N1CCC(CC#N)(n2cc(C(N)=O)c(Nc3ccc(Br)cc3)n2)CC1` [Example 2-2, tert-butyl 4-{3-[(4-bromophenyl)amino]-4-carbamoyl-1H-pyrazol-1-yl}-4-(cyanomethyl)piperidine-1-carboxylate], the pIC50 against JAK2 was 7.64; on JAK1, 9.30.
Turning to `Cn1ccc(-c2ccc(Nc3nn(C4(CC#N)CCN(C(=O)OC(C)(C)C)CC4)cc3C(N)=O)cc2)n1` [Example 9-13, tert-butyl 4-(4-carbamoyl-3-{[4-(1-methyl-1H-pyrazol-3-yl)phenyl]amino}-1H-pyrazol-1-yl)-4-(cyanomethyl)piperidine-1-carboxylate], the pIC50 against JAK2 was 6.86; at JAK1 it was 8.52.
Consider `N#CC[C@]1(n2cc(C(N)=O)c(Nc3ccc(S(=O)(=O)C(F)F)cc3)n2)CC[C@H](N)CC1` [Example 41-3], for which the pIC50 at JAK2 was 7.48; at JAK1 it was 9.00.
As to `N#CCC1(n2cc(C(N)=O)c(Nc3ccnc(F)c3)n2)CCN(Cc2cscn2)CC1` [Example 22-25, 1-[4-(cyanomethyl)-1-(1,3-thiazol-4-ylmethyl)piperidin-4-yl]-3-[(2-fluoropyridin-4-yl)amino]-1H-pyrazole-4-carboxamide], the pIC50 on JAK2 was 6.68; on JAK1, 8.22.
Regarding `CC(C)(C)OC(=O)N1CCC(CC#N)(n2cc(C(N)=O)c(Nc3cnccn3)n2)CC1` [Example 13-7, tert-butyl 4-(4-carbamoyl-3-(pyrazine-2-ylamino)-1H-pyrazol-1-yl)-4-(cyanomethyl)piperidine-1-carboxylate], the pIC50 at JAK2 was 6.68; on JAK1 it was 8.10.
Taken in the same sequence, the figures for `N#CCC1(n2cc(C(N)=O)c(Nc3ccccc3)n2)CCN(C(=O)c2ccccc2)CC1` [Example 34-7, 1-[4-(cyanomethyl)-1-(phenylcarbonyl)piperidin-4-yl]-3-(phenylamino)-1H-pyrazole-4-carboxamide] were 7.03 and 8.22.
Taken in the same sequence, the figures for `N#CCC1(n2cc(C(N)=O)c(Nc3ccc(F)cc3)n2)CCN(c2ccc(C(O)C(F)(F)F)cc2)CC1` (centres unmarked) [Example 3-9, 1-{4-(cyanomethyl)-1-[4-(2,2,2-trifluoro-1-hydroxyethyl)phenyl]piperidin-4-yl}-3-[(4-fluorophenyl)amino]-1H-pyrazole-4-carboxamide] were 7.43 and 9.00.
Turning to `CN1CCC(COC(=O)N2CC(CC#N)(n3cc(C(N)=O)c(Nc4ccccc4)n3)C2)CC1` [Example 30-73, (1-methylpiperidin-4-yl)methyl-3-[4-carbamoyl-3-(phenylamino)-1H-pyrazol-1-yl]-3-(cyanomethyl)azetidine-1-carboxylate], the pIC50 on JAK2 is 5.83; at JAK1, 6.89.

Broadly, the pIC50 is the IC50 on a negative log10 scale, so that one unit is a factor of ten.
